Measured values from patent US6420147B1, “Haloalkaliphilic microorganisms” (Genencor International, Inc., priority 1991, dated 2002).
Positions of bridges follow the written chain, without caps; N, C: chain ends. Non-standard residues stand in square brackets, D forms with d. Residues, ends and D or L forms follow the SMILES beside them. *: point of attachment. Ileψ(thiazoline)Cys = CC[C@H](C)[C@H](N)C1=N[C@H](C(=O)*)CS1; dOrn = NCCC[C@@H](N)C(=O)O

Tests used:
[1] = tested on: Strain 103Nt.4; experiment: Antibiotic sensitivity (susceptibility test disks on Medium A agar); assay type: cell-based; settings: antibiotic disks (contents in Appendix C), 37° C., up to 14 days
Experimental: (§1) A light suspension of bacteria in alkaline, saline, nutrient broth was spread on the surface of alkaline nutrient, saline agar (Medium A) and allowed to dry. Commercially available antibiotic susceptibility test disks (Oxoid or Mast Laboratories: Merseyside, U.K.) were applied to the agar surface. The bacteria were cultivated at 37° C. for up to 14 days. Clear zones around the antibiotic disks indicated sensitivity and were recorded as positive.

[2] = tested on: Strain 31M.4; experiment: as above; assay type: cell-based; settings: antibiotic disks (contents in Appendix C), 37° C., up to 14 days
Experimental: as §1

[3] = tested on: Strain 86M.4; experiment: as above; assay type: cell-based; settings: antibiotic disks (contents in Appendix C), 37° C., up to 14 days
Experimental: as §1

[4] = tested on: Strain 93dLM.4; experiment: as above; assay type: cell-based; settings: antibiotic disks (contents in Appendix C), 37° C., up to 14 days
Experimental: as §1

[5] = tested on: Strain 95LM.4; experiment: as above; assay type: cell-based; settings: antibiotic disks (contents in Appendix C), 37° C., up to 14 days
Experimental: as §1

[6] = tested on: Strain 98Nt.4; experiment: as above; assay type: cell-based; settings: antibiotic disks (contents in Appendix C), 37° C., up to 14 days
Experimental: as §1

[7] = tested on: Cluster 1 haloalkaliphilic bacteria; experiment: Antibiotic sensitivity, distribution of positive characters; assay type: cell-based; settings: share of strains of cluster 1 (78.5% similarity level, SSM) scored positive = clear zone around antibiotic disk; Medium A agar, 37° C., up to 14 days
Experimental: as §1

[8] = tested on: Cluster 2 haloalkaliphilic bacteria; experiment: as above; assay type: cell-based; settings: share of strains of cluster 2 (78.5% similarity level, SSM) scored positive = clear zone around antibiotic disk; Medium A agar, 37° C., up to 14 days
Experimental: as §1

[9] = tested on: Cluster 3 haloalkaliphilic bacteria; experiment: as above; assay type: cell-based, haloalkaliphilic eubacteria; settings: share of strains of cluster 3 (78.5% similarity level, SSM) scored positive = clear zone around antibiotic disk; Medium A agar, 37° C., up to 14 days
Experimental: as §1

[10] = tested on: Cluster 4 haloalkaliphilic bacteria; experiment: as above; assay type: cell-based, haloalkaliphilic eubacteria; settings: share of strains of cluster 4 (78.5% similarity level, SSM) scored positive = clear zone around antibiotic disk; Medium A agar, 37° C., up to 14 days
Experimental: as §1

[11] = tested on: Strain 931LM.4; experiment: Antibiotic sensitivity (susceptibility test disks on Medium A agar); assay type: cell-based; settings: antibiotic disks (contents in Appendix C), 37° C., up to 14 days
Experimental: as §1

Molecule	Inhibition of growth by antibiotic [1]	Inhibition of growth by antibiotic [2]	Inhibition of growth by antibiotic [3]	Inhibition of growth by antibiotic [4]	Inhibition of growth by antibiotic [5]	Inhibition of growth by antibiotic [6]	Distribution of positive characters: antibiotic sensitivity, Cluster 1 [7]	Distribution of positive characters: antibiotic sensitivity, Cluster 2 [8]	Distribution of positive characters: antibiotic sensitivity, Cluster 3 [9]	Distribution of positive characters: antibiotic sensitivity, Cluster 4 [10]	Inhibition of growth by antibiotic [11]
CC[C@H](C)[C@H](N)C1=N[C@H](C(=O)N[C@@H](CC(C)C)C(=O)N[C@H](CCC(=O)O)C(=O)N[C@H](C(=O)N[C@H]2CCCCNC(=O)[C@H](CC(N)=O)NC(=O)[C@@H](CC(=O)O)NC(=O)[C@H](Cc3cnc[nH]3)NC(=O)[C@@H](Cc3ccccc3)NC(=O)[C@H]([C@@H](C)CC)NC(=O)[C@@H](CCCN)NC2=O)[C@@H](C)CC)CS1 [bacitracin] ({Ileψ(thiazoline)Cys}-L[dE]IK[dOrn]I[dF]H[dD]N; lactam 4-C)	not inhibited	not inhibited	inhibited	inhibited	inhibited	inhibited	100	82	100	100	
CCn1cc(C(=O)O)c(=O)c2ccc(C)nc21 [nalidixic acid]	inhibited	inhibited					0	18	0	0	inhibited
NC[C@H]1O[C@H](O[C@H]2[C@H](O)[C@@H](O[C@H]3O[C@H](CO)[C@@H](O)[C@H](N)[C@H]3O)[C@H](N)C[C@@H]2N)[C@H](O)[C@@H](O)[C@@H]1O [kanamycin]			not inhibited	not inhibited	not inhibited	not inhibited	0	0	0	17	
O=C1CN(/N=C/c2ccc([N+](=O)[O-])o2)C(=O)N1 [nitrofurantoin]											not inhibited
neomycin	inhibited		not inhibited	not inhibited	not inhibited	not inhibited	0	0	0	0	
CC(=O)O[C@H]1C[C@@]2(C)[C@@H](C[C@@H](O)[C@H]3[C@@]4(C)CC[C@@H](O)[C@@H](C)[C@@H]4CC[C@@]32C)/C1=C(\CCC=C(C)C)C(=O)O [fusidic acid]	not inhibited	inhibited					14	9	0	17	inhibited
CN[C@H](CC(C)C)C(=O)N[C@H]1C(=O)N[C@@H](CC(N)=O)C(=O)N[C@H]2C(=O)N[C@H]3C(=O)N[C@H](C(=O)N[C@H](C(=O)O)c4cc(O)cc(O)c4-c4cc3ccc4O)[C@H](O)c3ccc(c(Cl)c3)Oc3cc2cc(c3O[C@@H]2O[C@H](CO)[C@@H](O)[C@H](O)[C@H]2O[C@H]2C[C@](C)(N)[C@H](O)[C@H](C)O2)Oc2ccc(cc2Cl)[C@H]1O [vancomycin]	not inhibited		not inhibited	inhibited	inhibited	not inhibited	0	0	100	83	
polymixin	inhibited	not inhibited	not inhibited	not inhibited	not inhibited	not inhibited	0	0	0	0	
O=C(N[C@H](CO)[C@H](O)c1ccc([N+](=O)[O-])cc1)C(Cl)Cl [chloramphenicol]	not inhibited	inhibited	not inhibited		inhibited	not inhibited	0	0	100	100	inhibited
CO[C@H]1/C=C/O[C@@]2(C)Oc3c(C)c(O)c4c(O)c(c(/C=N/N5CCN(C)CC5)c(O)c4c3C2=O)NC(=O)/C(C)=C\C=C\[C@H](C)[C@H](O)[C@@H](C)[C@@H](O)[C@@H](C)[C@H](OC(C)=O)[C@@H]1C [rifampicin]	not inhibited	not inhibited	not inhibited				14	64	67	83	
CN(C)[C@@H]1C(O)=C(C(N)=O)C(=O)[C@@]2(O)C(O)=C3C(=O)c4c(O)cccc4[C@@](C)(O)[C@H]3C[C@@H]12 [tetracycline]			not inhibited	not inhibited	not inhibited	not inhibited	14	9	33	17	
gentamicin	not inhibited	inhibited	not inhibited	inhibited	not inhibited	not inhibited					inhibited
COc1cccc(OC)c1C(=O)N[C@@H]1C(=O)N2[C@@H]1SC(C)(C)[C@@H]2C(=O)O [methicillin]	not inhibited	inhibited					0	0	0	0	inhibited
CC1(C)S[C@@H]2[C@H](NC(=O)Cc3ccccc3)C(=O)N2[C@H]1C(=O)O [penicillin G]	inhibited	inhibited	not inhibited	inhibited	inhibited	not inhibited					inhibited
Cc1cc(NS(=O)(=O)c2ccc(N)cc2)no1 [sulphamethoxazole]	inhibited	not inhibited									
COc1cc(Cc2cnc(N)nc2N)cc(OC)c1OC [trimethoprim]	inhibited	not inhibited									not inhibited
Gentamycin							0	0	67	50	
CO[C@H]1C[C@H](O[C@H]2[C@H](C)[C@@H](O[C@@H]3O[C@H](C)C[C@H](N(C)C)[C@H]3O)[C@@H](C)C[C@@]3(CO3)C(=O)[C@H](C)[C@@H](O)[C@@H](C)[C@@H](C)OC(=O)[C@@H]2C)O[C@@H](C)[C@@H]1O [oleandomycin]	not inhibited	inhibited	not inhibited	inhibited	inhibited	not inhibited	0	0	100	100	
